Results as given in patent US4661516A, “Diaminocyclohexane platinum complexes” (Research Corporation, priority 1984, dated 1987).

How the values were obtained:
[1] = system: Wild type L1210 leukemic cells; assay: In vitro cytotoxicity, wild type L1210 leukemic cells (L1210/0); assay type: cell-based; settings: L1210, 72 hours incubation
Protocol: Four ml of cell suspension (10^5 cells/ml) are added to culture tubes and the appropriate concentration (0.01, 0.1, 1 or 10 μg/ml final concentration) of drug added to the culture tubes. After 72 hours of incubation, the cell concentration of control and experimental cultures are determined with the aid of a Coulter Counter® Model ZBf and the percent inhibition calculated. […]

[2] = system: L1210 cells; assay: In vivo anti-tumor activity, L1210, single i.p. injection; design: species or system BDF1 mice; settings: single i.p.
Protocol: About 24 hours after inoculation of the cells, the mice were injected intraperitoneally with varying dosages of complexes of the present invention. […] Long term survival signifies that animals were alive 60 days after inoculation with L1210 cells.

[3] = system: L1210/0 leukemia cells; assay: In vivo anti-tumor activity, L1210 (L1210/0), multiple i.p. doses; design: species or system BDF1 mice; settings: for LTS: survivors/treated 50 days after treatment
Protocol: BDF1 mice were inoculated intraperitoneally with 10^6 L1210 cells. About 24 hours after inoculation of the cells, the mice were injected intraperitoneally with varying dosages of complexes of the present invention. Six mice were used for each dosage level in each experiment with an equal number of control mice inoculated with 10^6 L1210 cells and left untreated with a given complex. The results [%T/C=(survival time of treated animals/survival time of control animals)×100] are set forth below. Long term survival signifies that animals were alive 60 days after inoculation with L1210 cells.
The procedure of Example 16 was repeated except that the treated animals were injected with multiple doses of the complex as indicated below:
The anti-tumor activity of compound number 3 was evaluated against cells sensitive to (L1210/0) and resistant to (L1210/PDD) the standard platinum complex cis-diamminedichloroplatinum(II).
The following complexes were tested in vivo oncolytic activity following 3 i.p. injections (days 1, 5, 9) according to the protocol described in Examples 16 and 17.
BDF1 mice were innoculated intraperitoreally with 10^6 L1210 leukemia cells and treatment was begun on the next day (day 1). Two treatment schedules, i.e. single i.p. injection of the drug and i.p. injections on days 1, 5 and 9 according to the protocol described in Examples 16 and 17 were used.

[4] = system: L1210 leukemia cells (L1210/PDD); assay: In vitro cytotoxicity / cross-resistance, L1210/PDD (L1210/DDP) cells resistant to cisdiamminedichloroplatinum(II); assay type: cell-based; settings: L1210/DDP, Tables VII and VIII; 5760 min
Protocol: Four ml of cell suspension were added to culture tubes and the appropriate concentration (0.01, 0.1, 1 or 10 μg/ml final drug concentration) was added. After 96 hours the cell concentration of control and experimental cultures were calculated with the aid of a Coulter Counter® Model ZBf and the percent inhibition calculated.

[5] = 6.25 mg/kg i.p., days 1, 5, 9, 30 day observation period
[6] = 12.5 mg/kg i.p., days 1, 5, 9, 30 day observation period
[7] = 25 mg/kg i.p., days 1, 5, 9, 30 day observation period

Compound | ID50 [1] [µg/mL] | % T/C ([2]; 25 mg/kg) [%] | % T/C ([2]; 50 mg/kg) | % T/C ([2]; 12.5 mg/kg) [%] | also measured
NC1CCCCC1N.O=C([O-])C1CC(O)CN1.O=C([O-])C1CC(O)CN1.[Pt+2] (mixture of isomers) [Compound 17, cis-bis-L-hyroxyprolinato(DACH)Pt(II).1H2 O] | 2.7 | 160 | 170% |  | % T/C ([2]; 100 mg/kg): Toxic
NC1CCCCC1N.O.O=C1CC(C(=O)[O-])C(C(=O)[O-])O1.[Pt+2] (racemic) [Compound 12, DL-isocitratolactone(DACH)Pt(II).1H2 O] | 1.0 | 133 | 145% |  | % T/C ([3]; 25 mg/kg, days 1,5,9): 219%; % T/C ([3]; 50 mg/kg, days 1,5,9): 165%; % T/C ([2]; 100 mg/kg): Toxic
NC1CCCCC1N.O.O=C([O-])C1CCCCN1.O=C([O-])C1CCCCN1.[Pt+2] (racemic) [Compound 18, cis-bis-DL-pipecolinato(DACH)Pt(II).1H2 O] | 0.44 | 180 | Toxic | 145 | 
NC1CCCCC1N.O=C([O-])[C@@H]1CCC[C@H]1C(=O)[O-].[Pt+2] (racemic) [Compound 27, trans-DL-1,2-cyclopentanedicarboxylato(DACH)Pt(II)] | 0.4 | 159 | 183% | 158 | 
NC1CCCCC1N.O=C1OC(C(O)CO)C([O-])=C1O.O=C1OC(C(O)CO)C([O-])=C1O.[Pt+2] (stereo not drawn) [Compound 6, cis-bis-ascorbato(cis-DACH)Pt(II).5H2 O] |  |  | Toxic |  | ID50 ([1]; 4320 min): 4.0 µg/mL; % T/C ([2]; 100 mg/kg): Toxic
NC1CCCCC1N.O.O.O=C([O-])C1=CC(O)C(O)C(O)C1.O=C([O-])C1=CC(O)C(O)C(O)C1.[Pt+2] (stereo not drawn) [Compound 10, cis-bis-shikimato(DACH)Pt(II).2H2 O] |  |  | 140% |  | % T/C ([3]; 12.5 mg/kg, days 1,5,9): 139%; % T/C ([3]; 25 mg/kg, days 1,5,9): 149%; % T/C ([3]; 50 mg/kg, days 1,5,9): 222%; Long Term Survivors ([3]; 50 mg/kg, days 1,5,9): 1/6; % T/C ([2]; 100 mg/kg): 217%; Long Term Survivors ([2]; 100 mg/kg, alive 60 days after inoculation): 2/6
NC1CCCCC1N.O.O.O=S(=O)([O-])CCO.O=S(=O)([O-])CCO.[Pt+2] (stereo not drawn) [Compound 13, cis-bis-isethionato(DACH)Pt(II).2H2 O] | 0.43 |  | Toxic |  | % T/C ([2]; 5 mg/kg): 153%; % T/C ([2]; 10 mg/kg): 180%; % T/C ([2]; 20 mg/kg): 140%; animals died of apparent drug toxicity ([2]; 20 mg/kg): 2/6; Long Term Survivors ([2]; 20 mg/kg, alive 60 days after inoculation): 1/6
NC1CCCCC1N.NCCOS(=O)(=O)[O-].NCCOS(=O)(=O)[O-].[Pt+2] (stereo not drawn) [Compound 14, cis-bis-2-aminoethylsulfato(DACH)Pt(II)] | 4.3 |  |  |  | ID50 L1210/DDP [4]: 3.7 µg/mL
NC1CCCCC1N.O.O=C([O-])C1CCN1.O=C([O-])C1CCN1.[Pt+2] [Compound 15, cis-bis-L-azetidinecarboxylato(DACH)Pt(II).1H2 O] | 3.6 | 148 | 161% | 157 | % T/C ([2]; 100 mg/kg): Toxic
NC1CCCCC1N.O.O=C([O-])C1(C(=O)[O-])CC1.[Pt+2] [Compound 20, cyclopropane-1,1-dicarboxylato(DACH)Pt(II).H2 O] | 0.41 |  |  |  | 
NC1CCCCC1N.O.O=C([O-])C1CCCCC1.O=C([O-])C1CCCCC1.[Pt+2] [Compound 22, Cis-bis-cyclohexanecarboxylato(DACH)Pt(II).1H2 O] | 0.5 |  | 140% |  | % T/C ([2]; 100 mg/kg): 170%
NC1CCCCC1N.O.O=C([O-])CC1(CC(=O)[O-])CCCCC1.[Pt+2] [Compound 23, 1,1-cyclohexanediacetato(DACH)Pt(II).1H2 O] | 0.6 |  |  |  | 
NC1CCCCC1N.O.O=C([O-])C1CCCC1.O=C([O-])C1CCCC1.[Pt+2] (stereo not drawn) [Compound 25, Cis-bis-cyclopentanecarboxylato(DACH)Pt(II).1H2 O] | 0.3 | 178 | 163% | 161 | % T/C [3, 5]: 202%; % T/C [3, 6]: 246%; % T/C [3, 7]: 253%
NC1CCCCC1N.O.O=C([O-])C1CC1.O=C([O-])C1CC1.[Pt+2] (stereo not drawn) [Compound 29, Cis-bis-cyclopropanecarboxylato(DACH)Pt(II).1H2 O] | 0.3 | 176 | 199% | 252 | LTS ([2]; 12.5 mg/kg): 1/6; Long Term Survivors (LTS) ([2]; 50 mg/kg, alive 60 days after inoculation): 1/6
NC1CCCCC1N.O.O=C([O-])C1CCC1.O=C([O-])C1CCC1.[Pt+2] (stereo not drawn) [Compound 30, Cis-bis-cyclobutanecarboxylato(DACH)Pt.1H2 O] | 0.4 | 154 | 145% | 149 | 
CCS(=O)(=O)[O-].CCS(=O)(=O)[O-].NC1CCCCC1N.O.[Pt+2] (stereo not drawn) [Compound 31, Cis-bis-ethanesulfonato(DACH)Pt(II).H2 O] | 3.1 | 134 | 153% | 109 | % T/C ([3]; 50 mg/kg i.p., days 1, 5, 9, 30 day observation period): 198%; LTS ([3]; 50 mg/kg, days 1, 5, 9): 1/6; % T/C ([3]; 100 mg/kg i.p., days 1, 5, 9, 30 day observation period): 295%; LTS ([3]; 100 mg/kg, days 1, 5, 9): 2/6
NC1CCCCC1N.NCC(=O)[O-].NCC(=O)[O-].O.[Pt+2] (stereo not drawn) [Compound 32, Cis-bis-glycinato(DACH)Pt(II).1H2 O] | 2.5 | 131 | 158% | 128 | 
NC1CCCCC1N.O=S(=O)([O-])CCCl.O=S(=O)([O-])CCCl.[Pt+2] (stereo not drawn) [Compound 33, Cis-bis-chloroethanesulfonato(DACH)Pt(II).1H 2 O] | 0.3 | 144 | Toxic | 188 | 
NC1CCCCC1N.O=C([O-])CN(CCO)CCO.O=C([O-])CN(CCO)CCO.[Pt+2] [Compound 34, Cis-bis-bicinato(DACH)Pt(II)] | 1.2 | 151 | 160% | 165 | 
NC1CCCCC1N.O.O.O=C([O-])CNCC(=O)[O-].[Pt+2] [Compound 35, Iminodiacetato(trans-R,R--DACH)Pt(II).2H2 O] | 3.0 |  |  |  | Long Term Survivors ([3]; Tables X and XI, days 1, 5 and 9, at maximal effective dose, alive 60 days after tumor inoculation): 2/6; Maximal Effective Dose ([3]; Tables X and XI, i.p. on days 1, 5 and 9): 25 mg/kg; % T/C ([3]; Tables X and XI, i.p. on days 1, 5 and 9, at maximal effective dose): 437%
NC1CCCCC1N.O.O.O=C([O-])C1CCCN1.O=C([O-])C1CCCN1.[Pt+2] [Compound 36, Cis-bis-L-prolinato(trans-R,R--DACH)Pt(II).2H2 O] | 0.8 | 212 | 149% | 179 | Long Term Survivors (LTS) ([2]; 25 mg/kg): 1/6
NC1CCCCC1N.O=C([O-])[C@@H]1C[C@H]1C(=O)[O-].[Pt+2] [Compound 40, trans-1,2-cyclopropanedicarboxylato(DACH)Pt(II)] | 0.4 |  |  |  | 
NC1CCCCC1N.O=C([O-])[C@@H]1CC[C@H]1C(=O)[O-].[Pt+2] [Compound 41, trans-1,2-cyclobutanedicarboxylato(DACH)Pt(II)] | 0.5 |  |  |  | 
Cis-bis-cyclohexenecarboxylato(DACH)Pt(II).1H2 O [Compound 24] | 1.0 | 132 | 165% |  | % T/C ([2]; 100 mg/kg): 105%
Cis-bis-cyclopentenecarboxylato(DACH)Pt(II).2H2 O [Compound 26] | 1.3 | 158 | 157% | 185 | % T/C [3, 5]: 189%; % T/C [3, 6]: 356%; LTS ([3]; 12.5 mg/kg, days 1, 5, 9): 1/6; % T/C [3, 7]: 300%; LTS ([3]; 25 mg/kg, days 1, 5, 9): 1/6
